Key:
MRP2 [1] = target: T1, MRP2 (Homo sapiens, UniProt Q92887); test: Caco-2 efflux of MRP2 probe CDCF (fluorescence) with/without inhibitor or in MRP2 KO cells; assay type: cell-based; details: for specificity of MRP2 inhibitors (functional assessment, Supplementary Table S1): Caco-2
T1 construct: express major uptake and efflux transporters on the apical and basal membranes, including the key efflux transporters Pgp, BCRP and MRP2; host or cells: Caco-2 (HTB-37); C2BBe1 clone WT/KO cells from SOLVO Biotechnology for the knockout comparisons
T1 sequence (Q92887 whole entry): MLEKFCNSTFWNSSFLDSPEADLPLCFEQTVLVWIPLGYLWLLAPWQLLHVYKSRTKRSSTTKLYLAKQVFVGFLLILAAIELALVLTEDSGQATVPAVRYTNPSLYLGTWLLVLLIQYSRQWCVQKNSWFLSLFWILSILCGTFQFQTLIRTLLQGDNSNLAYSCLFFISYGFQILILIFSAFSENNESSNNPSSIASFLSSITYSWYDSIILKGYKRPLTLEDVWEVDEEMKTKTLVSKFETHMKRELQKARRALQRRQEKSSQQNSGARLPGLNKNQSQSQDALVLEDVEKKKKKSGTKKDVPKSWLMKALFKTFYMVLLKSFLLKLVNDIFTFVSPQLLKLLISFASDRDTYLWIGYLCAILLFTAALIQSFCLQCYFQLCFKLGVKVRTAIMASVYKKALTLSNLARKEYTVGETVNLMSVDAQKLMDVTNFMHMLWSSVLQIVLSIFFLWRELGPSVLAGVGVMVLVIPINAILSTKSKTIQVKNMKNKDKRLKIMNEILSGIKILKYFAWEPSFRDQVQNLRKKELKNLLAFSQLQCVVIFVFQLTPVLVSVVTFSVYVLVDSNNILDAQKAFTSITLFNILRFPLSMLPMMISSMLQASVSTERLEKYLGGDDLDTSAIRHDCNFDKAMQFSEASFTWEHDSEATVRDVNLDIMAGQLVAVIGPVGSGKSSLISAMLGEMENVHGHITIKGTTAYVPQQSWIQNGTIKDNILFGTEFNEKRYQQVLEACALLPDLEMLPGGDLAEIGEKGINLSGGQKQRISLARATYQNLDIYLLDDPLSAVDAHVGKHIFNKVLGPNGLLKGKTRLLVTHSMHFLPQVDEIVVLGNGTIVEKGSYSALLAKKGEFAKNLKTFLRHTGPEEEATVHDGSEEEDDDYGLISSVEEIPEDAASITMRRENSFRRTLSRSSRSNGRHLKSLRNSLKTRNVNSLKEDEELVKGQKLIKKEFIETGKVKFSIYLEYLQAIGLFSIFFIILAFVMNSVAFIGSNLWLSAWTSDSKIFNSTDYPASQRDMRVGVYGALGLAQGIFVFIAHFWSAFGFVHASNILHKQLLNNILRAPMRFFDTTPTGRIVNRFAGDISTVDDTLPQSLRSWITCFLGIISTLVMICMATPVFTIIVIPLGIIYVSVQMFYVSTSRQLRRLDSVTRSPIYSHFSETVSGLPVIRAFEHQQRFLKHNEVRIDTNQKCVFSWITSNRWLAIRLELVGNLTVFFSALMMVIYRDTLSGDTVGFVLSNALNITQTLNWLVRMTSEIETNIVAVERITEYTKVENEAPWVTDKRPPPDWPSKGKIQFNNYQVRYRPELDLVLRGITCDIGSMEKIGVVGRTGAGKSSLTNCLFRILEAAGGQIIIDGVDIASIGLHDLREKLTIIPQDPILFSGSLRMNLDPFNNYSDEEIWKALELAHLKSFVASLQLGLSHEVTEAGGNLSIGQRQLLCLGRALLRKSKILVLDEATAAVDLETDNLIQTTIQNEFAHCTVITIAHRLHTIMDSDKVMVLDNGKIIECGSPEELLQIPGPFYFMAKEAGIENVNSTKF
Procedure: (§1) The compounds were first added into either the apical or basolateral chamber in the absence or presence of the relevant inhibitor. After 2 h incubation with the compounds, the samples from the apical and basolateral chamber were collected.
For MRP2 functional analysis, CDCF-DA (non-fluorescent diacetate), was added on the apical or basal chamber which diffuses into the cells and is converted into fluorescent CDCF (MRP2 substrate) by intracellular esterases. Efflux of the fluorescent CDCF was monitored by transferring 75 μL of samples from both the donor and acceptor compartments to a clear-bottomed black 96-well plate. The CDCF fluorescence was then measured on the plate reader with 485 (exc)/528 (em) nm wavelength.
(§2) The apparent permeability (Papp) of the substrate was calculated as follows: • Papp = (dQ/dt)/(C0 × Vr A) • dQ/dt = slope of the linear portion of the permeated amount versus time curve (µmol/l/s) • A = effective surface area of the Transwell insert (0.11 cm^2) • C0 = initial concentration of the substrate (µmol/L) • Vr = the volume of the receiver chamber (mL).
(§3) The efflux ratio was calculated as follows: • Papp (B to A)/Papp (A to B)
(§4) Pgp, BCRP and MRP2 knockout (stable) Caco-2 cells (C2BBe1) were kindly provided by SOLVO Biotechnology (Szeged, Hungary). The individual transporters were knocked out using zinc finger nuclease technology. The knockout cell lines were cultured for 21 days except BCRP KO, which was grown for 25 days in a 96-well format. Assay conditions were in accordance with the Caco-2 assay from our lab. Transport analysis was performed according to the protocol described above. After transport experiments, metabolites were extracted from Caco-2 cells and analyzed according to the protocols described below.

BCRP [2] = target: T2, BCRP (Homo sapiens, UniProt Q9UNQ0); test: Intracellular LC-MS metabolomic signature and inhibition score for BCRP in Caco-2 cells; details: Ko143 10 µM, Fumitremorgin C 5 µM, novobiocin 30 µM; Caco-2, 2 h
T2 sequence (Q9UNQ0 1-655): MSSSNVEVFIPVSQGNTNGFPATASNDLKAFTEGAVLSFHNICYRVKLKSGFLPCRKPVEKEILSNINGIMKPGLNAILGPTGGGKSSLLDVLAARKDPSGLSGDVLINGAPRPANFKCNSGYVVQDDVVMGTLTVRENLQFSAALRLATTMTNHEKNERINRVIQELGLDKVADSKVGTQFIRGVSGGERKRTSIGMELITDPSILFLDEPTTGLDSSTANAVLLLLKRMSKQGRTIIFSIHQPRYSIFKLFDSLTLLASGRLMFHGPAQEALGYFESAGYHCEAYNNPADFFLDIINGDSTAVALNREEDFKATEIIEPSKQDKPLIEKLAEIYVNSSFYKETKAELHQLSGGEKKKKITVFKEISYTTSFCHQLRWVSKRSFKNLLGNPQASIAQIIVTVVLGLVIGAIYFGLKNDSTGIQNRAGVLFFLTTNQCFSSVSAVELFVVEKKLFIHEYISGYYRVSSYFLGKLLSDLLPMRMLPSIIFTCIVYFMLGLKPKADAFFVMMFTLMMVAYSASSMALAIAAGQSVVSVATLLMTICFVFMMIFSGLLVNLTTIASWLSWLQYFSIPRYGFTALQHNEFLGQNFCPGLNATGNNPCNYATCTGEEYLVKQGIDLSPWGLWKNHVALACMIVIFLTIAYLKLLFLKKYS
Procedure: First, 2 × 10^4 cells/well were seeded on a 96 Transwell™ thin film polycarbonate membrane (0.4 µM pore size). Plates were incubated at 37 °C, 5% CO2 and 95% humidity. The cells were grown for 10 days and then treated on day 10. The monolayer integrity was checked prior to the experiment by measuring the transepithelial electrical resistance (TEER) using a TEER electrode. All TEER values ranged between 2000 and 4000 ohms∗cm^2, values greater than 1000 ohms∗cm^2 were used as an indicator of an intact monolayer.
MK571 (200 µM, n = 3) and Benzbromarone (66.7 µM, n= 1) were used to inhibit MRP2 activity. The compounds were diluted to the final concentration in HBSS (pH 7.4); 1% DMSO in HBSS was used as a control. Before treatment, media was removed, and the cells were washed twice with HBSS. […]
MultiQuant® software (v 3.0.3) was used for peak integration and the peak area for each metabolite was then exported. All data sets were normalized using the total sum of the quantified analyte area. The data were analyzed by SIMCA® 15/17 for multivariate analysis including Orthogonal Partial Least Squares–Discriminant Analysis (OPLS-DA). […]
The percentage difference for the normalized area of each (transporter) signature metabolite was calculated using the following equation:100 × (treated—control)/control

thymidylate synthase = test: Protein expression by Simple Western (WES/JESS) in Caco-2 cells: thymidylate synthase; assay type: cell-based, human; details: 24 h incubation; zosuquidar 5 µM, MK571 200 µM
Procedure: (§5) Cells were grown in a 6-well plate for 48 h and in a transwell for 10 days. Cells in the 6-well plates were incubated with inhibitors for 24 h and the cells in the transwell plate were incubated with inhibitors for 2 h to replicate metabolic effects. Protein extraction was performed once the cells were 90% confluent. Lysis buffer solution was prepared by adding 200 µL of phosphatase inhibitor cocktail 2 and 3 (Sigma-Aldrich, Dorset, UK), 100 µL of 100 mM PMSF protease inhibitor and 1 mL of CST lysis buffer (Cell Signaling Technology, Danvers, MA, USA) to 8.5 mls of deionized water. In the 6-well plate, cells were washed twice with ice-cold PBS, lysed with 500 μL of cold lysis buffer and transferred to Eppendorf tubes. The KO cells were lysed immediately after being taken out of the liquid nitrogen stock. […] The total protein concentration of the lysate was determined using Direct Detect™ infrared (IR)-based quantification system. […]
(§6) Different loading controls were used, depending on molecular weight and relative intensities of signal, and conditions were optimized accordingly. Protein samples were analyzed on a JESS/WES® (Simple Western system, Bio-Techne, Abingdon, UK) according to the manufacturer’s instructions (Protein Simple, Bio-Techne, Abingdon, UK) using a 12–230 kDa separation module. […]

[3] = test system: Serine Hydroxymethyltransferase 1 (SHMT1); test: Protein expression by Simple Western (WES/JESS) in Caco-2 cells: SHMT1; assay type: cell-based, human; details: 2 and 24 h; MK571 200 µM
Procedure: as §5, §6

MRP2 [4] = target: T1, MRP2; test: Intracellular LC-MS metabolomic signature and inhibition score for MRP2 in Caco-2 cells; assay type: cell-based
Procedure: (§7) Samples were dried using a nitrogen evaporator.
(§8) The sample injection volume was 2 μL. Sample data were acquired using Analyst software. All the samples were randomized to avoid analytical bias.

MTHFR = test: Protein expression by Simple Western (WES/JESS) in Caco-2 cells: MTHFR; assay type: cell-based, human; details: 24 h; zosuquidar 5 µM, Ko143 10 µM, MK571 200 µM; normalized to vinculin
Procedure: as §5, §6

[5] = test system: Adenosylhomocysteinase (AHCY); test: Protein expression by Simple Western (WES/JESS) in Caco-2 cells: AHCY; assay type: cell-based, human; details: 2 and 24 h incubation; MK571 200 µM
Procedure: as §5, §6

Pgp [6] = target: T3, Pgp (Homo sapiens, UniProt P08183); test: Caco-2 bidirectional transport of Pgp probe indinavir with/without inhibitor or in Pgp KO cells; assay type: cell-based; details: for specificity of Pgp inhibition among Pgp, BCRP and MRP2 (functional experiments): zosuquidar 10 µM, valspodar 50 nM
T3 construct: express major uptake and efflux transporters on the apical and basal membranes, including the key efflux transporters Pgp, BCRP and MRP2; host or cells: Caco-2 (HTB-37); C2BBe1 clone WT/KO cells from SOLVO Biotechnology for the knockout comparisons
T3 sequence (P08183 whole entry): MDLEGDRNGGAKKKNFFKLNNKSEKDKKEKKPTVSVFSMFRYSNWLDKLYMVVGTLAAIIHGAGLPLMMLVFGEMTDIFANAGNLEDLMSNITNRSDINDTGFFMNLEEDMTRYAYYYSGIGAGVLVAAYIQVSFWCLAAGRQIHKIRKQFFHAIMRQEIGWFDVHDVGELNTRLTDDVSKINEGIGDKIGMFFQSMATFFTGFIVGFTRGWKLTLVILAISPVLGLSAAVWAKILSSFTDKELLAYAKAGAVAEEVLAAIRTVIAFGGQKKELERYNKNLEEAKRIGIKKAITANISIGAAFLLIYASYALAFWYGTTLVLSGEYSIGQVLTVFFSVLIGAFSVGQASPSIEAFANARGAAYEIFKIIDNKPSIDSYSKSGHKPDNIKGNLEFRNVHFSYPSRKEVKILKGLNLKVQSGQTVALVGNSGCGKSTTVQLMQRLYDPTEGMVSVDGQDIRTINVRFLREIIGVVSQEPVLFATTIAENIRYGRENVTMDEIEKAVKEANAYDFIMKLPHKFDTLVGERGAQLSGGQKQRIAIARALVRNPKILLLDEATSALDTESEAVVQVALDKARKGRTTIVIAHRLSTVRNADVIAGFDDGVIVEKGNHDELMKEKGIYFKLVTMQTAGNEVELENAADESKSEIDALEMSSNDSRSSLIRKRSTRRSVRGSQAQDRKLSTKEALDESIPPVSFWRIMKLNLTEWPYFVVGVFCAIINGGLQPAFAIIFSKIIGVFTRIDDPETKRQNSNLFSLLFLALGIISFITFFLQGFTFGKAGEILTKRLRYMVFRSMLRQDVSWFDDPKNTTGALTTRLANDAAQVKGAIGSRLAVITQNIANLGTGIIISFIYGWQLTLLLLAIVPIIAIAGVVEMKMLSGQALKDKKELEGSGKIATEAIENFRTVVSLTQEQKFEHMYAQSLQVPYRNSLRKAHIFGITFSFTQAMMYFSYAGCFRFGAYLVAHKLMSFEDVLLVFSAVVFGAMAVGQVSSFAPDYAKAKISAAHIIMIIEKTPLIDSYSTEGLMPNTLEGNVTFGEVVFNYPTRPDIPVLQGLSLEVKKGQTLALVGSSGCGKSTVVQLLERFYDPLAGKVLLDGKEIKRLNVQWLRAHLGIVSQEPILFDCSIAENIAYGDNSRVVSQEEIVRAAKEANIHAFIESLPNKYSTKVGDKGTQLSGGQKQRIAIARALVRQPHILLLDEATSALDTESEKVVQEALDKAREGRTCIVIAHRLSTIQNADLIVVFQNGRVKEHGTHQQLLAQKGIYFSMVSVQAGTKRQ
Procedure: as §1
(§9) For Pgp and BCRP functional analysis, a 75 µL aliquot of the samples was collected from both the donor and acceptor compartments and transferred to a new 96-well microplate (V bottom) containing 75 µL of methanol. 10 µL from the mixture was collected and transferred to a new plate containing 90 µL of 50:50 methanol/water. The concentration of probe substrates in the samples was then quantified using LC-MS.
The flow rate was 0.6 mL/min, and the total run time was 3.5 min. The sample injection volume was 2 μL. Sample data were acquired using Analyst software.
as §2, §3, §4

BCRP [7] = target: T2, BCRP; test: Caco-2 bidirectional transport of BCRP probe estrone-3-sulfate with/without inhibitor or in BCRP KO cells; assay type: cell-based; set-up: express major uptake and efflux transporters on the apical and basal membranes, including the key efflux transporters Pgp, BCRP and MRP2; host or cells: Caco-2 (HTB-37); C2BBe1 clone WT/KO cells from SOLVO Biotechnology for the knockout comparisons; details: C2BBe1 Caco-2 BCRP KO vs WT
Procedure: as §1, §9
The flow rate was 0.6 mL/min, and the total run time was 3.5 min. […]
as §2, §3
Pgp, BCRP and MRP2 knockout (stable) Caco-2 cells (C2BBe1) were kindly provided by SOLVO Biotechnology (Szeged, Hungary). […] After transport experiments, metabolites were extracted from Caco-2 cells and analyzed according to the protocols described below.

[8] = set-up: method as in PMID 33312947; details: trials testing efficacy against multidrug resistance; cited from earlier work
Pgp [9] = target: T3, Pgp; test: Intracellular LC-MS metabolomic signature and inhibition score for Pgp in Caco-2 cells; assay type: cell-based; details: some of the metabolites
Procedure: as §7, §8
For example, for Pgp, the percentage changes in Pgp signature metabolites with Pgp inhibition were summed to calculate a Pgp inhibition score for that inhibitor.

methionine synthase = test: Protein expression by Simple Western (WES/JESS) in Caco-2 cells: methionine synthase; assay type: cell-based, human; details: 2 and 24 h incubation; zosuquidar 5 µM
Procedure: as §5, §6

5(6)-carboxy-2′,7′-dichlorofluorescein [CDCF]
efflux ratio in MRP2 KO cells in comparison with wild type cells (MRP2 [1]; C2BBe1 Caco-2 MRP2 KO vs WT): reduced

COc1ccc2c3c([nH]c2c1)[C@H](C=C(C)C)N1C(=O)[C@@H]2CCCN2C(=O)[C@@H]1C3 [Fumitremorgin C]
intracellular levels of glutamate, hypoxanthine and xanthine (BCRP [2]): decreased
intracellular pantothenate levels (BCRP [2]): increased

CN(C)C(=O)CCSC(SCCC(=O)O)c1cccc(/C=C/c2ccc3ccc(Cl)cc3n2)c1 (stereo not drawn) [MK571]
thymidylate synthase expression (thymidylate synthase): reduced
Serine Hydroxymethyltransferase 1 (SHMT1) expression [3]: significant reduction
change of MRP2 signature metabolites with increasing inhibitor concentration (MRP2 [4]): concentration-dependent change
MTHFR protein expression (MTHFR): significant decrease
specificity of MRP2 inhibitors (functional assessment, Supplementary Table S1) (MRP2 [1]): lack of specificity
CDCF efflux in presence of inhibitor (MRP2 [1]; Caco-2 monolayer, CDCF 10 µM, 2 h): markedly reduced
Adenosylhomocysteinase (AHCY) protein levels [5]: significantly reduced

CCc1oc2ccccc2c1C(=O)c1cc(Br)c(O)c(Br)c1 [benzbromarone, Benzbromarone]
specificity of MRP2 inhibitors (functional assessment, Supplementary Table S1) (MRP2 [1]): lack of specificity

CN(C)CCCN1c2ccccc2Sc2ccc(Cl)cc21 [chlorpromazine]
Pgp inhibition compared to other additional inhibitors (Pgp [6]; validation inhibitors of Figure 5C): weaker interaction with Pgp

C[C@]12CC[C@@H]3c4ccc(OS(=O)(=O)O)cc4CC[C@H]3[C@@H]1CCC2=O [estrone-3-sulfate]
efflux ratio in BCRP KO cells in comparison with wild type cells (BCRP [7]): reduced

C/C=C/C[C@@H](C)C(=O)[C@H]1C(=O)N[C@@H](C(C)C)C(=O)N(C)CC(=O)N(C)[C@@H](CC(C)C)C(=O)N[C@@H](C(C)C)C(=O)N(C)[C@@H](CC(C)C)C(=O)N[C@@H](C)C(=O)N[C@H](C)C(=O)N(C)[C@@H](CC(C)C)C(=O)N(C)[C@@H](CC(C)C)C(=O)N(C)[C@@H](C(C)C)C(=O)N1C [valspodar]
specificity of Pgp inhibition among Pgp, BCRP and MRP2 (functional experiments) (Pgp [6]): specifically inhibit Pgp

O[C@@H](COc1cccc2ncccc12)CN1CCN([C@@H]2c3ccccc3[C@@H]3[C@H](c4ccccc42)C3(F)F)CC1 [zosuquidar]
toxicity observed in clinical trials [8]: neurotoxicity
thymidylate synthase expression (thymidylate synthase): reduced
change of Pgp signature metabolites with increasing inhibitor concentration (Pgp [9]): concentration dependent change
MTHFR protein expression (MTHFR): increase
transcellular transport of indinavir in presence of inhibitor (Pgp [6]; Caco-2 monolayer, indinavir 10 µM, 2 h): inhibited
specificity of Pgp inhibition among Pgp, BCRP and MRP2 (functional experiments) (Pgp [6]): specifically inhibit Pgp
methionine synthase expression (methionine synthase): increase
